Results taken from US20170020900A1, “METHODS FOR SCREENING ANTIMICROBIAL AND ANTIVIRAL COMPOUNDS AND USES THEREOF” (The General Hospital Corporation, priority 2006, published 2017).
Converted amounts (≈) assume the structure as drawn.

Tests used:
[1] = system: E. faecalis; test: Bacterial colonization of the nematode intestine (CFU per worm); assay type: in vivo, Enterococcus faecalis; details: 100% = 3.28 × 10^4 CFU/worm
Method: Infected worms were washed three times with M9 buffer containing 1 mM sodium azide. Approximately 10 worms were transferred to a 2 ml microcentrifuge tube and the volume was brought to 250 μl. Fifty μl of buffer was removed and plated to determine the number of external CFU.

[2] = system: E. faecalis strain MMH594; test: MIC, 2-fold broth microdilution in BHI media (NCCLS); assay type: cell-based, Enterococcus faecalis; details: E30 value is at its aqueous solubility limit
Method: (§1) Worm survival was scored manually after 6 days of incubation. […] MICs were determined against E. faecalis strain MMH594 using 2-fold dilution in BHI media according to the broth microdilution protocol of the NCCLS (CLSI) (National Committee for Clinical Laboratory Standards, Approved Standard M7-A5; Methods for Dilution Antimicrobial Susceptibility Tests for Bacteria that Grow Aerobically, Villanova, Pa.: NCCLS (2000)).

[3] = system: E. faecalis strain MMH594; test: C. elegans-E. faecalis liquid infection (curing) assay in 96-well plates, worm survival; assay type: in vivo, Enterococcus faecalis; details: glp-4, sek-1 C. elegans infected with E. faecalis MMH594
Method: as §1

[4] = system: C. krusei ATCC#6258; details: cited from earlier work
[5] = system: C. parapsilosis ATCC#22019; details: cited from earlier work
[6] = system: C. albicans MLR62; test: Fungal burden within C. elegans (cfu per worm); assay type: in vivo, Candida albicans; details: for concentration of Candida cfu in the nematodes: data not shown
Method: The number of C. albicans colony forming units in C. elegans was quantified based on the protocol detailed by Tang et al., Infect. Immun. 73:8219 (2005) and Garsin et al., Proc. Natl. Acad Sci. USA 98:10892 (2001) with a few modifications. C. albicans strain MLR62 lawns were prepared on BHI as described above. C. elegans glp-4; sek-1 worms were exposed to the lawns for 30 minutes and then moved to liquid media and incubated at 25° C. in the presence or absence of antifungal agents. At appropriate time points, 3 groups of 10 worms each were washed twice in 8 μl drops of M9 buffer on BHI agar plates, in order to remove surface Candida. Each group of 10 worms was then disrupted using a Pellet Pestle Motor (Kontes) and plated on YPD agar containing kanamycin (45 μg/ml), ampicillin (100 μg/ml), and streptomycin (100 μg/ml). The plates were incubated for 48 hours at 30′C and colonies were counted.

[7] = system: DAY185; details: Candida strain DAY185; cited from earlier work
[8] = system: C. albicans strain MLR62; test: C. elegans liquid medium killing assay with established antifungals; assay type: in vivo, Candida albicans
Method: (§2) Candida strains were inoculated in 2 ml of YPD and grown at 30° C. for 24 hours. Lawns were prepared by spreading 10 μl of each culture on 35 mm tissue-culture plates (Falcon) containing solid brain heart infusion (BHI) media (Difco) with kanamycin (45 μg/ml), ampicillin (100 μg/ml), and streptomycin (100 μg/ml). The plates were incubated at 30′C for 24 hours followed by 25° C. for 24 hours. glp-4; sek-1 and glp-4 worms were grown at 15° C. until they reached the L2 stage, and then they were transferred to 25° C. for 24 h. N2 wild-type worms were grown at 15° C. for 72 h, until they reached the L4 stage. Approximately 100 worms were picked onto each lawn and allowed to feed for 30 minutes to 2 hours. The worms were washed off the plates with M9 buffer and allowed to crawl on unseeded BHI plates to remove yeast cells from their cuticles. Roughly 70-80 worms were then picked to wells in a six-well microtiter dish that contained 1.5 ml liquid medium of 79% M9 buffer, 20% BHI, 2 μM cholesterol and 90 μg/ml kanamycin. The plates were incubated at 25° C. overnight and then examined at 24-hour intervals for survival.
To develop a system that allows high throughput screening for antifungal compounds, we first evaluated whether established antifungals prolong the survival of nematodes infected with Candida spp. For this, we used different C. albicans isolates as well as non-albicans strains, including those used as reference strains by clinical microbiology laboratories ([…], N. C. F. C. L. Methods for antifungal disk diffusion susceptibility testing of yeasts; approved guideline M44-A. (National Committee for Clinical Laboratory Standards, Wayne, Pa., 2004)).

[9] = system: C. albicans strain MLR62; test: C. elegans-Candida killing assay, compound library screen in 96-well plates; assay type: in vivo, Candida albicans; details: positive control of the screen; <25% alive in PBS
Method: For testing the efficacy of chemical compounds, C. albicans strain MLR62 was inoculated into 2 ml of YPD and grown at 30° C. for 24 hours; 10 μl of the culture was spread on 35-mm tissue-culture plates (Falcon) containing brain heart infusion (BHI) agar (Difco) with kanamycin (45 μg/ml), ampicillin (100 μg/ml), and streptomycin (100 μg/ml). The plates were incubated at 30° C. for 24 hours. C. elegans animals at the L4 developmental stage (grown as detailed above under C. elegans liquid medium killing assays) were transferred from a lawn of E. coli HB101 onto C. albicans lawns on BHI medium, incubated at 25° C. for 30 minutes, and then pipetted in 50 μl into 96-well plate wells that contained 100 μl liquid media (79% of M9 buffer, 20% BHI media, 2 μM cholesterol and 90 μg/ml kanamycin). C. elegans glp-4; sek-1 nematodes were pipetted into 96-well plates that contained compounds from chemical libraries. Library 1361 was assembled by Biomol and contains well-characterized compounds that affect many different aspects of cellular pathways. The NINDS custom collection (plates 501-503) was put together by MicroSource Discovery Systems for the National Institute of Neurological Disorders and Stroke (NINDS), the Huntington's Disease Society of America (HDSA), the Amyotrophic Lateral Sclerosis (ALS) Association, and the Hereditary Disease Foundation (HDF). It mostly contains FDA approved drugs. The Prestwick library (plate 1569) contains compounds that are known to be safe and bioactive in humans. The majority of the compounds are marketed drugs.
On day 6, nematodes were evaluated for survival, filament formation and optical density. The plates were incubated at 25° C. and examined on day 6 for survival with a Nikon SMZ645 dissecting microscope. In addition, images were obtained using a CellWorx High Content Cell Analysis System (Applied Precision) at 4× magnification. Dead worms were counted but not removed. […] Each compound was also scored by the number of dead worms in the well that developed hyphea. […] Compounds were categorized as having a minimal effect on filament formation if 25-75% of the dead worms developed hyphea.
Approximately 25 nematodes were used to analyze each chemical compound tested. Two controls were used in all plates. […] In this pilot screen, we considered a compound as a “hit” when survival in the compound well with was 50% and above of the median survival of the control wells. Depending on the compound library, the final concentration of the compounds was 33.33 μg/ml, 13.33 μg/ml, or […].

[10] = system: C. albicans ATCC#90028; details: cited from earlier work
[11] = system: C. krusei ATCC#6258; assay type: in vivo; details: fluconazole 32 μg/ml, fluconazole-resistant strain
Method: as §2
To develop a system that allows high throughput screening for antifungal compounds, we first evaluated whether established antifungals prolong the survival of nematodes infected with Candida spp. […]

[12] = caspofungin 8 μg/ml, amphotericin B 16 μg/ml, fluconazole 32 μg/ml, FIG. 17A

| Structure (SMILES) | Amt. Colonization vs untreated [1] [%] | MIC [2] [µg/mL] | Therapeutic Concentration [3] [µg/mL] | Fold Survival vs untreated ([3]; untreated = 24% survival) | MIC [4] | MIC [5] | concentration of Candida cfu in the nematodes [6] | MIC [7] [µg/mL] | prolongation of nematode survival ([8]; in vivo) | nematode survival at day 6 [9] [%] | fungal burden, average colony-forming units ([6]; 8 μg/ml, untreated 170.8±63.5 cfu per worm, P<0.001) [cfu per worm] | MIC [10] [μg/ml for caspofungin] | prolongation of nematode survival [8, 12] | lowest effective concentration (effective at concentrations as low as) ([8]; nematode survival, P<0.0001) [µg/mL] | effect on nematode survival [11] |
| --- | --- | --- | --- | --- | --- | --- | --- | --- | --- | --- | --- | --- | --- | --- | --- |
| O=c1oc2ccccc2c(O)c1/C(=C/C(=N/Nc1ccccc1)c1ccc(-c2ccc(Br)cc2)cc1)c1ccccc1 [Compound G1] | 6 | 31.3 (≈ 51 µM) | 25 | 3.3 |  |  |  |  |  |  |  |  |  |  |  |
| C[C@@H]1[C@H](O)[C@@H](C)/C=C/C=C/C=C/C=C/C=C/C=C/C=C/[C@H](O[C@@H]2O[C@H](C)[C@@H](O)[C@H](N)[C@@H]2O)C[C@@H]2O[C@](O)(C[C@@H](O)C[C@@H](O)[C@H](O)CC[C@@H](O)C[C@@H](O)CC(=O)O[C@H]1C)C[C@H](O)[C@H]2C(=O)O [amphotericin B] |  |  |  |  | MIC: 2 μg/ml for amphotericin B^d, | MIC: 2 μg/ml for amphotericin B^d, | significantly decreased | 0.5 (≈ 0.541 µM) | effective |  |  |  |  |  |  |
| CC[C@H](C)C[C@H](C)CCCCCCCCC(=O)N[C@H]1C[C@@H](O)[C@@H](NCCN)NC(=O)[C@@H]2[C@@H](O)CCN2C(=O)[C@H]([C@H](O)CCN)NC(=O)[C@H]([C@H](O)[C@@H](O)c2ccc(O)cc2)NC(=O)[C@@H]2C[C@@H](O)CN2C(=O)[C@H]([C@@H](C)O)NC1=O [caspofungin] |  |  |  |  | 0.5 to 2 µg/mL | 0.5 to 2 µg/mL |  | 2 (≈ 1.83 µM) |  | > 75 | 0.3±0.2 | 1 | effective | 1 |  |
| OC(Cn1cncn1)(Cn1cncn1)c1ccc(F)cc1F [fluconazole] |  |  |  |  | 32 µg/mL (≈ 104 µM) | 2 µg/mL (≈ 6.53 µM) | significantly decreased | 2 (≈ 6.53 µM) |  |  |  |  | effective |  | no effect |
